Key:
[1] = biological target: human trypsin; test: Measurement of trypsin inhibitory activity; assay type: biochemical; settings: substrate Boc-Phe-Ser-Arg-AMC, Tris-HCl pH 8.0, Dixon plot
Method: Measurement of Trypsin Inhibitory Activity
Using a 96 well plate (#3915, Costar), a test compound (25 μL) was mixed with 20 μM fluorescence enzyme substrate (Boc-Phe-Ser-Arg-AMC, 50 μL) mixed with 200 mM Tris-HCl buffer (pH 8.0), and human trypsin (Sigma, 25 μL) was added. Using a fluorescence plate reader fmax (Molecular Devices, Inc.), the reaction rate was measured from the time-course changes at excitation wavelength 355 nm and fluorescence wavelength 460 nm. The Ki value was calculated from the concentration of the test compound, reciprocal of reaction rate, and Km value of the enzyme substrate, and by using Dixon plot.

[2] = biological target: recombinant human enteropeptidase (Homo sapiens (Human), UniProt P98073); test: Measurement of enteropeptidase inhibitory activity; assay type: biochemical; settings: substrate Gly-Asp-Asp-Asp-Asp-Lys-β-Naphtylamide, Tris-HCl pH 8.0, Dixon plot
Method: Measurement of Enteropeptidase Inhibitory Activity
Using a 96 well plate (#3915, Costar), a test compound (25 μL), 400 mM Tris-HCl buffer (pH 8.0, 25 μL) and 0.5 mg/mL fluorescence enzyme substrate (Gly-Asp-Asp-Asp-Asp-Lys-β-Naphtylamide, 25 μL) were mixed, and recombinant human enteropeptidase (R&D Systems, Inc., 25 μL) was added. Using a fluorescence plate reader fmax (Molecular Devices, Inc.), the reaction rate was measured from the time-course changes at excitation wavelength 320 nm and fluorescence wavelength 405 nm. The Ki value was calculated from the concentration of the test compound, reciprocal of reaction rate, and Km value of the enzyme substrate, and by using Dixon plot.

recombinant human enteropeptidase, sequence (P98073 whole entry): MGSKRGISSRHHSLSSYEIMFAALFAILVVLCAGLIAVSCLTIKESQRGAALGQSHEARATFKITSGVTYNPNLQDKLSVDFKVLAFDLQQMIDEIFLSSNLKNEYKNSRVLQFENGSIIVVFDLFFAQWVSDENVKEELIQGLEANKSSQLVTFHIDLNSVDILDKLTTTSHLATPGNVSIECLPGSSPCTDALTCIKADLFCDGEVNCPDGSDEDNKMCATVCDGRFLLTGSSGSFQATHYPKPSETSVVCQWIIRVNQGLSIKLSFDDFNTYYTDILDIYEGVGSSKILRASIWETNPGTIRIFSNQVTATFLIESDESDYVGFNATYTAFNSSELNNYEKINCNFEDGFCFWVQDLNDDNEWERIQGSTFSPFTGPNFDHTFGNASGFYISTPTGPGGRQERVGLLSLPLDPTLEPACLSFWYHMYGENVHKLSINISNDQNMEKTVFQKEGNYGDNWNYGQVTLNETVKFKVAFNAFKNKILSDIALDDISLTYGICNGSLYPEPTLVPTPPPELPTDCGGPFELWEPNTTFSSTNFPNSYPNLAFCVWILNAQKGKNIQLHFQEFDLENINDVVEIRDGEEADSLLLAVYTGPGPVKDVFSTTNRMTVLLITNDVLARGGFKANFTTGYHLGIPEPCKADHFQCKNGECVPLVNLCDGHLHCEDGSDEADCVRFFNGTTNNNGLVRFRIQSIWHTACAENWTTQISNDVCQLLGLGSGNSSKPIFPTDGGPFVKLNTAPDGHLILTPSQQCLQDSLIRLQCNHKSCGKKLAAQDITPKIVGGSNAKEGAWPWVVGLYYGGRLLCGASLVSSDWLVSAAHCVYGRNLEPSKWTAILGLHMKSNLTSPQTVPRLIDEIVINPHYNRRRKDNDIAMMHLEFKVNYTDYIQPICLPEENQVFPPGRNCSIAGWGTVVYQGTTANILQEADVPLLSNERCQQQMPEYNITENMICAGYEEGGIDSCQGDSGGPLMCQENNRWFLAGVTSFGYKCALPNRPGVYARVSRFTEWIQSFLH

Row | Ki [1] | Ki [2] | SMILES
1 | 1.42 nM | 0.69 nM | CCC(CC)(Cc1ccc(C(=O)Oc2ccc(C(=N)N)cc2F)s1)C(=O)NCC(=O)NCC(=O)O [Compound 77]
2 | 2.89 nM | 1.08 nM | CC(C)(Cc1ccc(C(=O)Oc2ccc(C(=N)N)cc2F)s1)C(=O)Nc1ccc(C(=O)O)cc1 [Compound 31]
3 | 3.84 nM | 1.18 nM | CCC[C@H](NC(=O)C(CC)(CC)Cc1ccc(C(=O)Oc2ccc(C(=N)N)cc2F)s1)C(=O)O [Compound 29]
4 | 0.7 nM | 1.43 nM | CC(C)(Cc1ccc(C(=O)Oc2ccc(C(=N)N)cc2F)s1)C(=O)Nc1cccc(C(=O)O)c1 [Compound 32]
5 | 2.01 nM | 0.67 nM | CC(C)(Cc1ccc(C(=O)Oc2ccc(C(=N)N)cc2F)s1)C(=O)N(CC(=O)O)CC1CC1 [Compound 76]
6 | 2.73 nM | 0.94 nM | CCC(CC)(Cc1ccc(C(=O)Oc2ccc(C(=N)N)cc2F)s1)C(=O)NCCCC(=O)O [Compound 30]
7 | 1.69 nM | 0.67 nM | CCC(CC)(Cc1ccc(C(=O)Oc2ccc(C(=N)N)cc2F)s1)C(=O)N[C@@H](CC(N)=O)C(=O)O [Compound 44]

From patent US9024044B2, “Heteroarylcarboxylic acid ester derivative” (Ajinomoto Co., Inc., priority 2012, dated 2015)
